Experiments:
[1] = test system: hippocampal excitatory synaptic transmission (fEPSP, perforant path - dentate gyrus); assay: Basal excitatory synaptic transmission (fEPSP amplitude) in the hippocampus of the freely moving rat; format: in vivo, Sprague-Dawley rat; settings: for activity on basal excitatory synaptic transmission (in words): Compound X 6 mg/kg ip, physostigmine 0.1 mg/kg ip, drug vs. vehicle, paired t-test; for DRUG FEPSP AMPLITUDE [% OF PRE-VEHICLE BASELINE ± S.E.M.]: ip, Compound X 6.0 mg/kg, physostigmine 0.1 mg/kg, 15 min post-drug period with largest increase
Experimental: (§1) Experiments were carried out in freely moving male Sprague-Dawley rats implanted with depth stimulating and recording electrodes in the hippocampus and olfactory cortex to (1) characterize the effect of a compound of Formula 1 ((2R,3S)-2-amino-3-hydroxy-3-(pyridin-4-yl)-1-(pyrrolidin-1-yl)propan-1-one) (“Compound X”) on basal excitatory synaptic transmission, a measure positively associated with behavioral performance and encoding of information; and (2) determine a possible interaction on synaptic transmission when Compound X is coapplied with physostigmine and galantamine—both members of the cholinesterase inhibitor family which has pro-cognitive efficacy in Alzheimer's Disease patients.
(§2) Field excitatory post-synaptic responses (fEPSPs) evoked by electrical stimulation were recorded in freely moving animals with depth electrodes permanently implanted in the hippocampus and olfactory cortex. Experiment 1 compared the effect of one dose level (6 mg/kg ip) of Compound X on hippocampal and cortical fEPSPs with vehicle control data. Experiment 2 compared the effect of Compound X (6 mg/kg ip) combined with either physostigmine (0.1 mg/kg ip) or galantamine (1 mg/kg ip) on hippocampal and cortical fEPSPs with vehicle control data.
(§3) Male Sprague Dawley rats, 3 months of age at the time of surgery, were used. The animals were housed individually and kept in a 12:12 light/dark cycle with food and water available ad libitum.
(§4) Preparation of animals with chronically implanted electrodes followed procedures essentially as described in earlier published work (U. Staubli and J. Scafidi, J. J. Neurosci. 17: 4820-4828 (1997)). For recordings from the hippocampus, the stimulating electrode was placed in the perforant path within the entorhinal cortex, and the recording electrode in the hilus of the hippocampal dentate gyrus. For recording from the olfactory cortex, the stimulating electrode was placed in the olfactory tract and the recording electrode in the layer I of the piriform cortex.
Ten days following recovery from surgery, the animals were acclimated to the recording cage as well as to the attachment of a recording lead to the head stage. Recording sessions began by adjusting current intensities (25-100 μA) and pulse width of the monophasic stimulation pulse (100-250 μsec) to produce a field excitatory postsynaptic potential (fEPSP) that was 50-60% of the maximum amplitude of the population-spike free response which typically ranged between 4 and 8 mV. Recording signals were amplified and filtered with a band pass of 1 Hz to 5 kHz and fed into a PC running specialized software (NacGather) that digitizes measures and stores the evoked responses. […]

[2] = test system: excitatory synaptic transmission in the olfactory cortex (fEPSP, olfactory tract - piriform cortex layer I); assay: Basal excitatory synaptic transmission (fEPSP amplitude) in the olfactory cortex of the freely moving rat; format: in vivo, Sprague-Dawley rat; settings: for activity on basal excitatory synaptic transmission (in words): Compound X 6 mg/kg ip, drug vs. vehicle, paired t-test; for DRUG FEPSP AMPLITUDE [% OF PRE-VEHICLE BASELINE ± S.E.M.]: ip, Compound X 6.0 mg/kg, 15 min post-drug period with largest increase
Experimental: as §1, §2, §3, §4
Ten days following recovery from surgery, the animals were acclimated to the recording cage as well as to the attachment of a recording lead to the head stage. Recording sessions began by adjusting current intensities (25-100 μA) and pulse width of the monophasic stimulation pulse (100-250 μsec) to produce a field excitatory postsynaptic potential (fEPSP) that was 50-60% of the maximum amplitude of the population-spike free response which typically ranged between 4 and 8 mV. Recording signals were amplified and filtered with a band pass of 1 Hz to 5 kHz and fed into a PC running specialized software (NacGather) that digitizes measures and stores the evoked responses.
Hippocampal animals (subjects with electrodes implanted into hippocampus) were randomly assigned to one of 3 groups, i.e., Compound X alone, Compound X plus physostigmine, physostigmine alone. Cortical animals (subjects with electrodes implanted into olfactory cortex) were randomly assigned to 5 groups, i.e., Compound X alone, Compound X plus physostigmine, physostigmine alone, Compound X plus galantamine, galantamine alone. […] If changes in baseline greater than +5% were observed, the experiment was terminated for that day. All other animals were injected with test compound 20 min after vehicle, and fEPSP recording was continued for at least 2 hours, but 4 hrs if the drug effect was still present at 2 hrs. In cases where animals were used repeatedly, a minimum of three washout days followed each test session. Responses were sampled once every 20 sec throughout the experiment.
Compound X was kept frozen at approximately −20° C. in a freezer as a powder. Immediately prior the powder was dissolved in double distilled water (ddw) to make a 12 mg/ml stock and then diluted by 50% for injection at 6 mg/kg at a final volume of 1 ml/kg.
Physostigmine (eserine hemisulfate) was purchased from Sigma Aldrich and dissolved in ddw to make a 1 mg/ml stock solution. […]

SMILES | activity on basal excitatory synaptic transmission (in words) [1] | DRUG FEPSP AMPLITUDE [% OF PRE-VEHICLE BASELINE ± S.E.M.] [1] | activity on basal excitatory synaptic transmission (in words) ([2]; galantamine 1 mg/kg ip) | activity on basal excitatory synaptic transmission (in words) ([2]; physostigmine 0.1 mg/kg ip) | DRUG FEPSP AMPLITUDE [% OF PRE-VEHICLE BASELINE ± S.E.M.] ([2]; galantamine 1.0 mg/kg) | DRUG FEPSP AMPLITUDE [% OF PRE-VEHICLE BASELINE ± S.E.M.] ([2]; physostigmine 0.1 mg/kg)
N[C@@H](C(=O)N1CCCC1)[C@@H](O)c1ccncc1 [Compound X, (2R,3S)-2-amino-3-hydroxy-3-(pyridin-4-yl)-1-(pyrrolidin-1-yl)propan-1-one] | significant facilitatory activity | 7.86 ± 2.98 % OF PRE-VEHICLE BASELINE | significant facilitatory activity | significant facilitatory activity | 10.67 + 1.67 % OF PRE-VEHICLE BASELINE | 10.67 + 1.67 % OF PRE-VEHICLE BASELINE
COc1ccc2c3c1O[C@H]1C[C@@H](O)C=C[C@@]31CCN(C)C2 [Galantamine, reference compound] | – | – | inactive | – | 3.13 + 1.73 % OF PRE-VEHICLE BASELINE | –
CNC(=O)Oc1ccc2c(c1)[C@]1(C)CCN(C)[C@@H]1N2C [Physostigmine, reference compound] | inactive | 2.33 + 2.91 % OF PRE-VEHICLE BASELINE | – | – | – | 5.30 + 0.69 % OF PRE-VEHICLE BASELINE

From patent US9492543B2, “Compositions for treating cognitive disorders” (priority 2009, dated 2016)
